Data as given in patent US12202805B2, “Process for preparing (5S)-{[2-(4-carboxyphenyl)ethyl] |2-(2-{|3-chloro-4'-(trifluoromethyl)biphenyl-4-yl]methoxy}phenyl)ethyl]aminol-5,6,7,8-tetrahydroquinoline-2-carboxylic acid and its crystalline forms for use as pharmaceutically active compound” (Bayer Aktiengesellschaft, priority 2021, dated 2025).

Key:
[1] = system: PAH-minipig model; experiment: PAH-minipig model on top of PAH standard-of-care; type: in vivo; conditions: inhaled; SoC e.g. bosentan, sildenafil, Ilomedin, riociguat
[2] = system: unilateral ventilated minipig model; experiment: Unilateral ventilated minipig model as a proxy of VQ-mismatch; type: in vivo; conditions: inhaled application
[3] = Determination of thermal stability (solid, 7 days at 90° C., HPLC); type: physicochemical; conditions: HPLC peak areas
Description: Determination of thermal stability of comparative example 11:
0.3 mg of the comparative example 11 were solved in 0.1 ml dimethylsulfoxide and 0.4 ml acetonitrile. Then 1.0 ml water was added. For complete dissolution the HPLC vial was shaken and sonicated. This solution was immediately analyzed by HPLC (reference at t0). 0.3 mg of the test compound was weighed into another HPLC vial. The vial was capped and stored for 7 days in a heating block at 90° C.
After this time the vial was decapped and 0.1 ml dimethylsulfoxide and 0.4 ml acetonitrile were added to the stressed compound. Then 1.0 ml water was added. For complete dissolution the HPLC vial was shaken and sonicated. The sample was analyzed by HPLC (sample after 1 week). The peak areas in percentage are used for quantification.

[4] = system: sGC; experiment: Efficacy under experimental conditions of oxidative stress (ODQ, L-NAME treatment); type: in vivo
[5] = system: acetylcholine [ACh] rat model; experiment: Acetylcholine [ACh] rat model (bronchodilation); conditions: in vivo
[6] = Protein binding via Transil assay, minipig plasma; type: in vitro ADME; conditions: read-out: plasma fu (fraction unbound)
Description: Protein Binding of Comparative Example 11 and Comparative Example 1 was Analyzed Via Transil Assay, Described Below.
The distribution of a test substance between Transil® (phosphatidylcholine lipid bilayers immobilized on silica beads) and plasma is a characteristic feature of any pharmaceutical compound and is dependent on its extent of binding to plasma proteins. By comparing the distribution between Transil® and buffer with the distribution between Transil® and plasma of any species of interest, the unbound fraction in the plasma of the respective animal species can be calculated in vitro. The respective plasma and buffer concentrations were determined via a radioactivity analysis. A detailed description of the method and its validation was published by Schuhmacher et al. (2).

[7] = system: sGC; experiment: E-2.1 inhalative administration in healthy male subjects for 7 days: cGMP in blood samples; type: in vivo, human
Description: E-2.1 Inhalative Administration of sGC Activators in Healthy Male Subjects for 7 Days—cGMP and Bronchodilatation
(§1) Healthy White male subjects, aged 18 to 45 years and with a body mass index (BMI) above/equal 18.5 and below/equal 29.9 kg/m2 were treated in a clinical pharmacological phase I study on seven days with inhaled once daily doses of 480 μg or 1000 μg or 2000 μg (2 capsules of 1000 μg) (nominal dose) of dry powder formulations comprising example 2 or Placebo. The subjects inhaled the drug powder from capsules (see under C-1, e.g. tables 22 and 23) inserted into a handheld inhalation device by one deep inhalative breath. The dry powder formulation of the drug is dispersed into the airstream and fine particles are transported into the deep parts of the lung where it is intended to cause a vasodilation of the blood vessels in PH patients for a substantial reduction of increased blood pressure in the central pulmonary blood vessels in PAH patients or other subtypes of PH. This effect cannot be shown in subjects with healthy lungs. In addition inhaled drug causes a dilation of the bronchial airways and thus also improves disease states of lung diseases in PH patients with pathological bronchoconstriction. This effect was measured via bodyplethysmography as reduction of Specific Airway Resistance in healthy subjects. After the deep inhalative breath the subjects hold breath for 2 seconds, so that the dry powder drug condenses from the airstream onto the surface of the deeper lung areas where it is deposited close to its site of intended pharmacological action. The drug dissolutes over the day and equilibrates the lung via lining fluid.
Drug activity in healthy men was controlled in the healthy subjects by analysing blood samples for cGMP, the immediate product of sGC pharmacological activation prior after the first and after the last drug inhalation of the 7 days treatment in comparison to measurements on the pretreatment day for all doses.

[8] = E-2.1 plasma concentrations over time after inhalation in healthy male subjects; type: in vivo, human; conditions: all doses administered
Description: as §1, with “After the deep inhalative breath the subjects hold breath for 2 seconds, so that the dry powder drug condenses from the airstream onto the surface of the deeper lung areas where it is deposited close to its site of intended pharmacological action. The drug dissolutes over the day and equilibrates the lung via lining fluid.” left out

[9] = system: sGC; experiment: E-2.2 inhalative administration in healthy male subjects for 14 days: cGMP; type: in vivo, human; conditions: 1000 μg once daily inhaled
Description: E-2.2 Inhalative Administration of sGC Activators in Healthy Male Subjects for 14 Days to Evaluate Steady State Pharmacokinetics
Healthy white male subjects, aged 18 to 45 years and with a body mass index (BMI) above/equal 18.5 and below/equal 29.9 kg/m2 were treated in a clinical pharmacological phase I study for 14 days with inhaled once daily doses of 1000 μg (nominal dose) of Placebo or of dry powder formulation containing example 4. The subjects inhaled the drug powder from capsules (see under C, e.g. tables 17 and 20) inserted into a handheld inhalation device by one deep inhalative breath into the deep parts of the lung. The intended substantial reduction of increased blood pressure in the central pulmonary blood vessels cannot be evaluated in subjects without pathophysiological impairment of lung function. As surrogate for drug concentration in the lung, plasma concentrations over time have been analysed. […] Drug activity/target engagement in healthy men was controlled in the healthy subjects by analysing blood samples for cGMP.

## O=C(O)c1ccc(CCN(CCc2ccccc2OCc2ccc(-c3ccc(C(F)(F)F)cc3)cc2Cl)[C@H]2CCCc3nc(C(=O)O)ccc32)cc1 [comparative example 11, (5S)-5-{[2-(4-carboxyphenyl)ethyl][2-(2-{[3-chloro-4′-(trifluoromethyl)[biphenyl]-4-yl]methoxy}phenyl)ethyl]amino}-5,6,7,8-tetrahydroquinoline-2-carboxylic acid]
[1]
  effect on elevated PAP on top of PAH standard-of-care: selectively decreased elevated PAP
[2]
  effect on PAP and oxygenation: lowered PAP without negative effects on oxygenation
[3]
  thermal stability: stable
[4]
  efficacy under oxidative stress: enhanced
[5]
  effect on ventilation: bronchodilatory effect

## O=C(O)c1ccc(CCN(CCc2ccccc2OCc2ccc(-c3ccc(C(F)(F)F)cc3)cc2Cl)[C@H]2CCCc3nc(C(=O)O)ccc32)cc1 [example 2, (5S)—{[2-(4-Carboxyphenyl)ethyl][2-(2-{[3-chloro-4′-(trifluoromethyl)biphenyl-4-yl]methoxy}phenyl)-ethyl]amino}-5,6,7,8-tetrahydroquinoline-2-carboxylic acid as Monohydrate II]
[6]
  fraction unbound: 0.00348
[7]; 480 μg, 8 D 00 H 00 M
  cGMP over time (mean): 7.20 ± 3.23 nmol/L
[7]; 480 μg, 8 D 12 H 00 M
  cGMP over time (mean): 6.20 ± 2.00 nmol/L
[7]; 480 μg, −0 D 09 H 00 M
  cGMP over time (mean): 5.60 ± 1.08 nmol/L
[7]; 480 μg, −1 D 02 H 00 M
  cGMP over time (mean): 5.40 ± 1.41 nmol/L
[7]; 1000 μg, 5 D 00 H 00 M
  cGMP over time (mean): 8.50 ± 2.13 nmol/L
[7]; 1000 μg, −0 D 22 H 00 M
  cGMP over time (mean): 5.10 ± 1.46 nmol/L
[7]; 2000 μg, 2 D 00 H 00 M
  cGMP over time (mean): 6.40 ± 2.09 nmol/L
[7]; 2000 μg, 3 D 00 H 00 M
  cGMP over time (mean): 10.00 ± 3.51 nmol/L
[7]; 2000 μg, 8 D 00 H 00 M
  cGMP over time (mean): 16.00 ± 5.77 nmol/L
[7]; 2000 μg, 9 D 12 H 00 M
  cGMP over time (mean): 9.40 ± 3.10 nmol/L
[7]; first profile day, 1000 μg inhaled
  peak mean±SD cGMP value: 11.69 ± 1.86 nmol/L
[8]
  persistence of measurable plasma concentration after first inhalation: 48 h

## O=C(O)c1ccc(CCN(CCc2ccccc2OCc2ccc(-c3ccc(C(F)(F)F)cc3)cc2Cl)[C@H]2CCCc3nc(C(=O)O)ccc32)cc1 [example 4, (5S)—{[2-(4-Carboxyphenyl)ethyl][2-(2-{[3-chloro-4′-(trifluoromethyl)biphenyl-4-yl]methoxy}phenyl)-ethyl]amino}-5,6,7,8-tetrahydroquinoline-2-carboxylic acid as Monohydrate I]
[9]
  steady state of cGMP concentration reached after days of treatment: ≤ 11 days
